Laboratory results published in publication PMC7939467, “Ascertaining the biochemical function of an essential pectin methylesterase in the gut microbe Bacteroides thetaiotaomicron” (The Journal of Biological Chemistry, 2021).
Read-outs that look alike come from different tables or passages of the source.

Columns and labels:
BT1017-CM = target: T1, BT1017-CM (Bacteroides thetaiotaomicron, UniProt Q8A900); assay: coupled spectrophotometric methanol release assay; assay type: biochemical; settings: 1.7 μM enzyme, pH and temperature not given (optimum pH 8.5, 37 °C), read-out: BT1017 constructs / BT1017-CM
T1 construct: gene BT_1017; crystal model residues 20-462 (text also gives module as 20-400); C-terminal His6; E. coli Tuner(DE3)
T1 sequence (Q8A900 20-462): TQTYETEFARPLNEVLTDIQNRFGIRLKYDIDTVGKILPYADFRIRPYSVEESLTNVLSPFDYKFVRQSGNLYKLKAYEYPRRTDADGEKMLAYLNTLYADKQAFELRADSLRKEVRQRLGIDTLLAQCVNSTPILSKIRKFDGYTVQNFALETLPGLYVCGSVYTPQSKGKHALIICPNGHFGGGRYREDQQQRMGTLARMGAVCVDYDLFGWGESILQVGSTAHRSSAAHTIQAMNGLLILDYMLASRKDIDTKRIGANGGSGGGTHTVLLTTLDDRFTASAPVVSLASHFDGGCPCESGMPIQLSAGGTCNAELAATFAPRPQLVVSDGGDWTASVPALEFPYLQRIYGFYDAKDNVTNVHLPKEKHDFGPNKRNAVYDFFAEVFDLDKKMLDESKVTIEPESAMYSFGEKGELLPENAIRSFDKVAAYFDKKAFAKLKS
Source text: coupled spectrophotometric methanol release assay on BT1017-CM

BT1017-SP = target: T2, BT1017-SP (Bacteroides thetaiotaomicron, UniProt Q8A900); assay: coupled spectrophotometric methanol release assay; assay type: biochemical; settings: 1.7 μM enzyme, read-out: BT1017 constructs / BT1017-SP
T2 construct: gene BT_1017
T2 sequence (Q8A900 21-653): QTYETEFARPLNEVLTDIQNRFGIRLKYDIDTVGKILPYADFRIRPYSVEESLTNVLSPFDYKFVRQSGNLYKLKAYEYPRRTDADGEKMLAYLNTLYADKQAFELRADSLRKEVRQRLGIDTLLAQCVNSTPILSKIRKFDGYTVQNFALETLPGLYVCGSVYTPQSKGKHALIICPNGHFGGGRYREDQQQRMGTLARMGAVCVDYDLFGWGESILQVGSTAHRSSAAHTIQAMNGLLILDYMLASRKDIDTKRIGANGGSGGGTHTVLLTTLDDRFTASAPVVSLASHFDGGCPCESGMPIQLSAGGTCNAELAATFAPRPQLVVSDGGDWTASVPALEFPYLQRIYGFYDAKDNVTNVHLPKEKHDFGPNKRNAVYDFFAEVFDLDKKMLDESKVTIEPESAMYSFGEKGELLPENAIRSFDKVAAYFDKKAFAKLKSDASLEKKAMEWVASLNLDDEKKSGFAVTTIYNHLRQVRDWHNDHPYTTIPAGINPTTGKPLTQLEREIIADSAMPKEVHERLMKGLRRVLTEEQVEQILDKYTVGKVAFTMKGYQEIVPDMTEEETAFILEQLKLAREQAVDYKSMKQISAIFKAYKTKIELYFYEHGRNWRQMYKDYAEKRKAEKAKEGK
Source text: coupled spectrophotometric methanol release assay on BT1017-SP

Substance	Km (BT1017-CM; 0.046–1.38 mM substrate) [µM]	Km (BT1017-SP; 0.046–1.38 mM substrate, pH and temperature of the kinetics not stated (optimum pH 8.5, 37 °C)) [µM]	Km (BT1017-CM; 0.09–3.47 mM substrate) [µM]	Km (BT1017-SP; 0.09–3.47 mM substrate, pH and temperature not given (optimum pH 8.5, 37 °C)) [µM]
GlcA-β1,4-(2-O-Me-Xyl-α1,3)-Fuc-α1,4-(GalA-β1,3)-Rha-α1,3-Api-β1,2-(Araf-α1,3)-(GalA-α1,4)-GalA [ΔBT1017oligoB]	400 ± 70	200 ± 30	–	–
Rha-α1,3-Api-β1,2-(Araf-α1,3)-(6-O-Me-GalA-α1,4)-GalA [ΔBT1017oligoA]	–	–	1000 ± 200	3000 ± 400
